According to patent US10759783B2, “Biaryl inhibitors of Bruton'S tyrosine kinase” (BIOGEN MA INC., priority 2013, dated 2020):

Legend:
[1] = target: BTK (phospho-BTK) in human whole blood (Homo sapiens, UniProt Q06187); assay: In vitro PD assay in human whole blood (pBTK assay)
BTK enzyme = target: T1, BTK enzyme (Homo sapiens, UniProt Q06187); assay: In vitro BTK kinase assay: BTK-POLYGAT-LS assay; format: biochemical; settings: ATP 10 μM, read-out: IC50 (10uMATP)
T1 construct: purchased Upstate 14-552
T1 sequence (Q06187 whole entry): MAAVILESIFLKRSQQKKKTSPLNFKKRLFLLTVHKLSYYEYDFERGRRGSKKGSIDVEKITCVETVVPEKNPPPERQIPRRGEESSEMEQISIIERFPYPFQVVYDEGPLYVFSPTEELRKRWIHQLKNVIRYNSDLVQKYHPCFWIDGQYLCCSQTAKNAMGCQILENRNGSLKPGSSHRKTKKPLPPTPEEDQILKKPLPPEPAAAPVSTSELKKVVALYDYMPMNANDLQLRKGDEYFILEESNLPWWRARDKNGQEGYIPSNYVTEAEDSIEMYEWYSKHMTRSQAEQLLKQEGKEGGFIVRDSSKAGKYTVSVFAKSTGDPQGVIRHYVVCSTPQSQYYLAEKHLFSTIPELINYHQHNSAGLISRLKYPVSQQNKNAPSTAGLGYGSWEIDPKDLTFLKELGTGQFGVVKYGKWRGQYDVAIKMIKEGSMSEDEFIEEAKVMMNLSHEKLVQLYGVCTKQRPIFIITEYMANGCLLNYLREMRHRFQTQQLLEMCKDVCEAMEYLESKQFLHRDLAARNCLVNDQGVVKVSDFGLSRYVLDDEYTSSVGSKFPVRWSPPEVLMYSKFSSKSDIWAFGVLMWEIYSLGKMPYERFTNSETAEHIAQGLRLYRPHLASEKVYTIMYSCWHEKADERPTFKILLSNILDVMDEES
In short: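 Human BTK activity was measured with final 10 μM ATP and 100 nM polyGAT substrate in pH 7.5 Tris buffer with 10 mM MgCl2, DTT, Triton X-100 and casein.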

Chain of BTK (phospho-BTK) in human whole blood (Q06187 whole entry): as above

Question: With `COCCc1cc(-c2ccnc(Nc3cnn4c3CCC4)n2)ccc1CNC(=O)N1CC(OC(C)(C)C)C1` [Example I-323, 3-tert-butoxy-N-[[4-[2-(5,6-dihydro-4H-pyrrolo[1,2-b]pyrazol-3-ylamino)pyrimidin-4-yl]-2-(2-methoxyethyl)phenyl]methyl]azetidine-1-carboxamide] as the molecule, how does the IC50 [1] read?
Answer: Its IC50 is < 500 nM.

Question: And the IC50 (BTK enzyme)?
Answer: The IC50 was < 10 nM.

Question: How did the IC50 [1] turn out when `Cc1cc(-c2ccnc(Nc3cnn(C)c3)n2)ccc1CNC(=O)c1ccc(C(C)(C)C)cc1` [Example I-7, 4-(tert-butyl)-N-(2-methyl-4-(2-((1-methyl-1H-pyrazol-4-yl)amino)pyrimidin-4-yl)benzyl)benzamide] was run?
Answer: Its IC50 is 500 to 1500 nM.

Question: What about the IC50 (BTK enzyme) of the same molecule?
Answer: The IC50 was < 10 nM.

Question: Which IC50 [1] does the source give for `Cc1cc(-c2ccnc(Nc3cnn(C)c3)n2)ccc1CNC(=O)c1cc2c(s1)CCNC2` [Example I-2, N-(2-methyl-4-(2-((1-methyl-1H-pyrazol-4-yl)amino)pyrimidin-4-yl)benzyl)-4,5,6,7-tetrahydrothieno[3,2-c]pyridine-2-carboxamide] here?
Answer: The IC50 was 500 to 1500 nM.

Question: What about the IC50 (BTK enzyme) of the same molecule?
Answer: The IC50 was < 10 nM.

Question: For `Cc1cc(-c2ccnc(N)n2)ccc1CNC(=O)c1cc2c(s1)CCCC2` [Example I-142, N-(4-(2-aminopyrimidin-4-yl)-2-methylbenzyl)-4,5,6,7-tetrahydrobenzo[b]thiophene-2-carboxamide], which IC50 [1] is on record?
Answer: Its IC50 is 1500 to 10000 nM.

Question: And the IC50 (BTK enzyme)?
Answer: Its IC50 is < 10 nM.

Question: How did the IC50 [1] turn out when `Cc1cc(-c2cc(Nc3cc4n(n3)CCN(CCO)C4)ncn2)ccc1CNC(=O)c1cnc(C(C)(C)C)s1` [Example I-271, 2-tert-butyl-N-[[4-[6-[[5-(2-hydroxyethyl)-6,7-dihydro-4H-pyrazolo[1,5-a]pyrazin-2-yl]amino]pyrimidin-4-yl]-2-methyl-phenyl]methyl]thiazole-5-carboxamide] was run?
Answer: Its IC50 is < 500 nM.

Question: And the IC50 (BTK enzyme)?
Answer: Its IC50 is < 10 nM.

Question: For `CCOC1CN(C(=O)NC2CCCCc3cc(-c4ccnc(Nc5cnn(C)c5)n4)ccc32)C1` (stereo not shown) [Example I-331, 3-ethoxy-N-[2-[2-[(1-methylpyrazol-4-yl)amino]pyrimidin-4-yl]-6,7,8,9-tetrahydro-5H-benzo[7]annulen-5-yl]azetidine-1-carboxamide], which IC50 [1] is on record?
Answer: The IC50 was < 500 nM.

Question: And the IC50 (BTK enzyme)?
Answer: The IC50 was < 10 nM.

Question: What does the source list for `Cc1cc(-c2ccnc(Nc3cnn(C)c3)n2)ccc1CNC(=O)c1cc2c(s1)CCOC2` [Example I-3, N-(2-methyl-4-(2-((1-methyl-1H-pyrazol-4-yl)amino)pyrimidin-4-yl)benzyl)-6,7-dihydro-4H-thieno[3,2-c]pyran-2-carboxamide]?
Answer: IC50 [1]: 1500 to 10000 nM; IC50 (BTK enzyme): < 10 nM

Question: Which IC50 [1] does the source give for `Cc1cc(-c2ccnc(Nc3cnn(C)c3)n2)ccc1CN1Cc2nc(C(C)(C)C)sc2C1=O` [Example I-12, 2-(tert-butyl)-5-(2-methyl-4-(2-((1-methyl-1H-pyrazol-4-yl)amino)pyrimidin-4-yl)benzyl)-4H-pyrrolo[3,4-d]thiazol-6(5H)-one] here?
Answer: The IC50 was < 500 nM.

Question: What about the IC50 (BTK enzyme) of the same molecule?
Answer: The IC50 was < 10 nM.

Question: What does the source list for `Cc1cc(-c2cc(Nc3cnn(C)c3)ncn2)ccc1CNC(=O)c1cnc(C(C)(C)C)s1` [Example I-64, 2-(tert-butyl)-N-(2-methyl-4-(6-((1-methyl-1H-pyrazol-4-yl)amino)pyrimidin-4-yl)benzyl)thiazole-5-carboxamide]?
Answer: IC50 [1]: 1500 to 10000 nM; IC50 (BTK enzyme): < 10 nM

Question: What does the source list for `Cn1cc(Nc2nccc(-c3ccc(CNC(=O)c4cnn(C(C)(C)C)c4)c(Cl)c3)n2)cn1` [Example I-291, 1-tert-butyl-N-[[2-chloro-4-[2-[(1-methylpyrazol-4-yl)amino]pyrimidin-4-yl]phenyl]methyl]pyrazole-4-carboxamide]?
Answer: IC50 [1]: < 500 nM; IC50 (BTK enzyme): < 10 nM

Question: For `Cc1cc(-c2ccnc(Nc3cnn4c3CCC4)n2)ccc1CNC(=O)N1CC(OC(C)(C)C)C1` [Example I-322, 3-tert-butoxy-N-[[4-[2-(5,6-dihydro-4H-pyrrolo[1,2-b]pyrazol-3-ylamino)pyrimidin-4-yl]-2-methyl-phenyl]methyl]azetidine-1-carboxamide], which IC50 [1] is on record?
Answer: The IC50 was < 500 nM.

Question: And the IC50 (BTK enzyme)?
Answer: The IC50 was < 10 nM.

Question: Which results are given for `COCCn1cc(Nc2nccc(-c3ccc(CNC(=O)N4CCC(C(C)(C)C)C4)c(C)c3)n2)cn1` (stereo not shown) [Example I-303, 3-tert-butyl-N-[[4-[2-[[1-(2-methoxyethyl)pyrazol-4-yl]amino]pyrimidin-4-yl]-2-methyl-phenyl]methyl]pyrrolidine-1-carboxamide]?
Answer: IC50 [1]: < 500 nM; IC50 (BTK enzyme): < 10 nM

Question: How did the IC50 [1] turn out when `Cc1cc(-c2ccnc(Nc3cnn([C@H]4CC[C@H](C(=O)O)CC4)c3)n2)ccc1CNC(=O)c1cnc(C(C)(C)C)s1` [Example I-49, trans-4-(4-((4-(4-((2-(tert-butyl)thiazole-5-carboxamido)methyl)-3-methylphenyl)pyrimidin-2-yl)amino)-1H-pyrazol-1-yl)cyclohexanecarboxylic acid] was run?
Answer: Its IC50 is < 500 nM.

Question: And the IC50 (BTK enzyme)?
Answer: Its IC50 is < 10 nM.

Question: How did the IC50 [1] turn out when `CN1CC(n2cc(Nc3nccc(-c4ccc(CNC(=O)c5cnn(C(C)(C)C)c5)c(C(F)(F)F)c4)n3)cn2)C1` [Example I-201, 1-(tert-butyl)-N-(4-(2-((1-(1-methylazetidin-3-yl)-1H-pyrazol-4-yl)amino)pyrimidin-4-yl)-2-(trifluoromethyl)benzyl)-1H-pyrazole-4-carboxamide] was run?
Answer: Its IC50 is < 500 nM.

Question: And the IC50 (BTK enzyme)?
Answer: Its IC50 is < 10 nM.

Question: Which results are given for `Cc1cc(-c2cc(Nc3cc4n(n3)CCOC4)ncn2)ccc1CNC(=O)N1CC(OC(C)(C)C)C1` [Example I-287, 3-tert-butoxy-N-[[4-[6-(6,7-dihydro-4H-pyrazolo[5,1-c][1,4]oxazin-2-ylamino)pyrimidin-4-yl]-2-methyl-phenyl]methyl]azetidine-1-carboxamide]?
Answer: IC50 [1]: < 500 nM; IC50 (BTK enzyme): < 10 nM

Question: For `Cc1cc(-c2nc(Nc3cnn(C)c3)ncc2F)ccc1CNC(=O)c1cnc(C(C)(C)C)s1` [Example I-111, 2-(tert-butyl)-N-(4-(5-fluoro-2-((1-methyl-1H-pyrazol-4-yl)amino)pyrimidin-4-yl)-2-methylbenzyl)thiazole-5-carboxamide], which IC50 [1] is on record?
Answer: Its IC50 is 1500 to 10000 nM.

Question: What about the IC50 (BTK enzyme) of the same molecule?
Answer: Its IC50 is < 10 nM.

Question: `Cc1cc(-c2cc(Nc3cc4n(n3)CCNC4)ncn2)ccc1CNC(=O)N1CC(OC(C)C)C1` [Example I-272, 3-isopropoxy-N-[[2-methyl-4-[6-(4,5,6,7-tetrahydropyrazolo[1,5-a]pyrazin-2-ylamino)pyrimidin-4-yl]phenyl]methyl]azetidine-1-carboxamide] was tested. Which IC50 [1] did it give?
Answer: Its IC50 is < 500 nM.

Question: And the IC50 (BTK enzyme)?
Answer: Its IC50 is < 10 nM.

Question: What does the source list for `Cc1cc(-c2ccnc(Nc3cnn([C@H]4CC[C@@H](C(=O)O)CC4)c3)n2)ccc1CNC(=O)c1cnc(C(C)(C)C)s1` [Example I-48, cis-4-(4-((4-(4-((2-(tert-butyl)thiazole-5-carboxamido)methyl)-3-methylphenyl)pyrimidin-2-yl)amino)-1H-pyrazol-1-yl)cyclohexanecarboxylic acid]?
Answer: IC50 [1]: < 500 nM; IC50 (BTK enzyme): < 10 nM

Question: For `COCCc1cc(-c2ccnc(Nc3cnn(C)c3)n2)ccc1CNC(=O)N1CCC(C(C)(C)C)C1` (stereo not shown) [Example I-320, 3-tert-butyl-N-[[2-(2-methoxyethyl)-4-[2-[(1-methylpyrazol-4-yl)amino]pyrimidin-4-yl]phenyl]methyl]pyrrolidine-1-carboxamide], which IC50 [1] is on record?
Answer: Its IC50 is < 500 nM.

Question: What about the IC50 (BTK enzyme) of the same molecule?
Answer: The IC50 was < 10 nM.

Question: Which results are given for `Cc1cc(-c2cc(Nc3cc4n(n3)CCS(=O)(=O)C4)ncn2)ccc1CNC(=O)c1cnn(C(C)(C)C)c1` [Example I-242, 1-(tert-butyl)-N-(4-(6-((5,5-dioxido-6,7-dihydro-4H-pyrazolo[5,1-c][1,4]thiazin-2-yl)amino)pyrimidin-4-yl)-2-methylbenzyl)-1H-pyrazole-4-carboxamide]?
Answer: IC50 [1]: < 500 nM; IC50 (BTK enzyme): < 10 nM
